Experimental findings from patent US20110218211A1, “AZAINDOLE INHIBITORS OF IAP” (Genentech, Inc., priority 2008, published 2011) are described below.

Assay [1] addresses T1, MLXBIR3SG (Homo sapiens, UniProt Q96CA5, S150G).
T1 sequence (Q96CA5 with tags, fused parts or gaps S150G): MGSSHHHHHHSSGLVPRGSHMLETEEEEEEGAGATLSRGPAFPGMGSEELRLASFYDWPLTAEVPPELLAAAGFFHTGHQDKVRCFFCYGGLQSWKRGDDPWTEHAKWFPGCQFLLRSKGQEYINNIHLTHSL
Put plainly: Fluorescence polarization peptide binding assay, MLXBIR3SG. To be noted: 0.06 μM MLXBIR3SG, 5 nM AVP-diPhe-FAM probe; for Ki: Ki determined from IC50. The method, then: In the following experiments was used a chimeric BIR domain referred to as MLXBIR3SG in which 11 of 110 residues correspond to those found in XIAP-BIR3, while the remainder correspond to ML-IAP-BIR. […] The improved caspase-9 inhibition of the chimeric BIR domain MLXBIR3SG has been correlated with increased inhibition of doxorubicin-induced apoptosis when transfected into MCF7 cells.
(§1) Polarization experiments were performed on an Analyst HT 96-384 (Molecular Devices Corp.) according to the procedure of Keating, S. M., Marsters, J, Beresini, M., Ladner, C., Zioncheck, K., Clark, K., Arellano, F., and Bodary, S. (2000) in Proceedings of SPIE: In Vitro Diagnostic Instrumentation (Cohn, G. E., Ed.) pp 128-137, Bellingham, Wash. Initial polarization experiments were performed in order to determine dissociation constants (Kd) between IAP protein BIR domains and fluorescent probes. Samples for fluorescence polarization affinity measurements were prepared by addition of serial dilutions of MLXBIR3SG, XIAP-BIR3, cIAP1XBIR3, or cIAP2XBIR3 in polarization buffer (50 mM Tris [pH 7.2], 120 mM NaCl, 1% bovine globulins, 5 mM DTT and 0.05% octylglucoside) to 5 nM 5-carboxyflourescein (5-FAM)-conjugated AVP-diphenylalanine-AKK (AVP-diPhe-FAM). The resulting reactions were incubated for 30 minutes at room temperature in 384-well black HE96 plates (Molecular Devices Corp.; Sunnyvale, Calif.) and fluorescence values were measured using standard filters for the fluorescein fluorophore (λex=485 nm, λem=530 nm). Fluorescence polarization values were plotted as a function of the protein concentration and the 50% effective concentration (EC50) values were obtained by fitting the data to a four-parameter equation using KaleidaGraph software (Synergy Software; Reading, Pa.). The apparent Kd values were determined from the EC50 values.
(§2) Inhibition constants (Ki) for the antagonists were determined by addition of 0.06 μM MLXBIR3SG, 0.5 μM XIAP-BIR3, 0.2 μM cIAP1XBIR3 or 0.4 μM cIAP2XBIR3 to wells containing 1:3 serial dilutions of the antagonists, and 5 nM AVP-diPhe-FAM probe in the polarization buffer. After a 10 to 30-minute incubation period, the fluorescence value of each sample was measured. Fluorescence polarization values were plotted as a function of the antagonist concentration, and the 50% inhibitory concentration (IC50) values were determined by fitting the data to a four-parameter equation using KaleidaGraph software. The Ki values for the antagonists were determined from the IC50 values (Keating et al. 2000).

Assay [2] concerns the target T2, XIAP-BIR3 (Homo sapiens, UniProt P98170).
T2 construct: serial dilutions of MLXBIR3SG, XIAP-BIR3, cIAP1XBIR3, or cIAP2XBIR3
Put plainly: Fluorescence polarization peptide binding assay, XIAP-BIR3. To be noted: 0.5 μM XIAP-BIR3, 5 nM AVP-diPhe-FAM probe; for Ki: Ki determined from IC50, read-out: XIAPBIR3 Ki; for IC50: read-out: XIAPBIR3 IC50. Here is the method:
as §1, §2

In assay [3] the target is T3, cIAP1XBIR3 (Homo sapiens, UniProt Q13490, C308S/R332G/S292A).
T3 construct: made in house
T3 sequence (Q13490 with tags, fused parts or gaps S292A/C308S/R332G): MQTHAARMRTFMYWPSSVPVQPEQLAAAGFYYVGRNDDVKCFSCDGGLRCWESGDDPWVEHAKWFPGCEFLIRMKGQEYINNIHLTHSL
Briefly: Fluorescence polarization peptide binding assay, cIAP1XBIR3. To be noted: 0.2 μM cIAP1XBIR3, 5 nM AVP-diPhe-FAM probe; for Ki: Ki determined from IC50. Here is the method: (§3) Similar cIAP1-BIR3/XIAP-BIR3 and cIAP2-BIR3/XIAP-BIR3 chimeric proteins, cIAP1XBIR3 and cIAP2XBIR3, respectively, were engineered, expressed, and purified in a similar fashion to MLXBIR3SG. As with MLXBIR3SG, the amino acid sequences of these BIR domains retain the native cIAP peptide-binding sites.
as §1, §2

The target in assay [4] is T4, cIAP2XBIR3 (Homo sapiens, UniProt Q13489, C294S/R318G/S278A).
T4 construct: made in house
T4 sequence (Q13489 with tags, fused parts or gaps S278A/C294S/R318G): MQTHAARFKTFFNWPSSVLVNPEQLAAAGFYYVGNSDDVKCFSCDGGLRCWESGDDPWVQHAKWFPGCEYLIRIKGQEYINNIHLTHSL
Put plainly: Fluorescence polarization peptide binding assay, cIAP2XBIR3. To be noted: 0.4 μM cIAP2XBIR3, 5 nM AVP-diPhe-FAM probe. Here is the method:
as §3
Polarization experiments were performed on an Analyst HT 96-384 (Molecular Devices Corp.) according to the procedure of Keating, S. M., Marsters, J, Beresini, M., Ladner, C., Zioncheck, K., Clark, K., Arellano, F., and Bodary, S. (2000) in Proceedings of SPIE: In Vitro Diagnostic Instrumentation (Cohn, G. E., Ed.) pp 128-137, Bellingham, Wash. Initial polarization experiments were performed in order to determine dissociation constants (Kd) between IAP protein BIR domains and fluorescent probes. […] The resulting reactions were incubated for 30 minutes at room temperature in 384-well black HE96 plates (Molecular Devices Corp.; Sunnyvale, Calif.) and fluorescence values were measured using standard filters for the fluorescein fluorophore (λex=485 nm, λem=530 nm). […] The apparent Kd values were determined from the EC50 values. […]

T2 sequence (P98170 241-356 limits assumed): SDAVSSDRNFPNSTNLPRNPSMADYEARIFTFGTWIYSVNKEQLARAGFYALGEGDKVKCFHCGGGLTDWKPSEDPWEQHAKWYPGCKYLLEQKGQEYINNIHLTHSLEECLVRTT

On to `CN[C@@H](C)C(=O)N[C@H](C(=O)N1CCC[C@H]1c1cc2nc(C)nc(-c3ccc(F)cc3)c2[nH]1)C1CCOCC1` [compound 8], for which, in assay [1], the IC50 turned out to be 108 nM and the inhibition constant Ki worked out at 24.6 nM. Further, in assay [2], the inhibition constant (Ki) was determined as 89 nM and the IC50 worked out at 500 nM.
For `CN[C@@H](C)C(=O)N[C@H](C(=O)N1CCC[C@H]1c1cc2nc(C)nc(-c3ccc(F)cc3)c2[nH]1)C1CCCCC1` [compound 9] the same measures were 62 nM, 14.1 nM, 64.9 nM and 364 nM.
In the case of `CN[C@@H](C)C(=O)N[C@H](C(=O)N1CCC[C@H]1c1cc2ccnc(-c3ccccc3)c2[nH]1)C1CCCCC1` [compound 13], the IC50 in assay [1] is 91 nM. The values for the Ki in assay [1] and in assay [2] were 20.7 nM and 63.8 nM, respectively.
Turning to `CN[C@@H](C)C(=O)N[C@H](C(=O)N1CCC[C@H]1c1cc2nc(C)nc(-c3ccccc3)c2[nH]1)C1CCCCC1` [compound 5], the IC50 in assay [1] was determined as 139 nM; in assay [2] it was 514 nM. Moreover, the inhibition constant (Ki) in assay [1] stood at 31.7 nM; in assay [2] it was 91.5 nM.
Turning to `CN[C@@H](C)C(=O)N[C@H](C(=O)N1CCC[C@H]1c1cc2ccnc(-c3ccccc3)c2[nH]1)c1ccccc1` [compound 12], in assay [1], the IC50 was 144 nM and the inhibition constant Ki was 32.9 nM. Moreover, the Ki in assay [2] was 64.4 nM.
As for `CN[C@@H](C)C(=O)N[C@H](C(=O)N1CCC[C@H]1c1cc2ncnc(-c3ccccc3)c2[nH]1)C1CCCCC1` [compound 3], the concentration for half-maximal inhibition (IC50) worked out at 131 nM in assay [1] and 445 nM in assay [2]. Further, the results for the Ki in assay [1] and in assay [2] were 29.8 nM and 79.2 nM, respectively.
For `CN[C@@H](C)C(=O)N[C@H](C(=O)N1CCC[C@H]1c1cc2ccnc(-c3ccc(F)cc3)c2[nH]1)C1CCOCC1` [compound 7] the same measures were 113 nM, 481 nM, 25.7 nM and 85.6 nM.
For `CN[C@@H](C)C(=O)N[C@H](C(=O)N1CCC[C@H]1c1cc2ncnc(-c3ccccc3)c2[nH]1)C1CCOCC1` [compound 4] the same measures were 156 nM, 434 nM, 35.6 nM and 76.9 nM.
`CN[C@@H](C)C(=O)N[C@H](C(=O)N1CCC[C@H]1c1cc2ccnc(-c3ccc(F)cc3)c2[nH]1)C1CCCCC1` [compound 10]: in assay [1], the half-maximal inhibitory concentration (IC50) was determined as 99.3 nM and the inhibition constant Ki stood at 22.6 nM. For the same compound, in assay [2], the Ki was 102 nM and the IC50 was 574 nM.
Regarding `CN[C@@H](C)C(=O)N[C@H](C(=O)N1CCC[C@H]1c1cc2ccnc(-c3ccccc3Cl)c2[nH]1)C1CCOCC1` [compound 11], the 50% inhibitory concentration (IC50) in assay [1] worked out at 648 nM; in assay [3], 194 nM; in assay [2], 682 nM. Further, the Ki turned out to be 148 nM in assay [1], 30.1 nM in assay [3] and 121 nM in assay [2].
Take `CN[C@@H](C)C(=O)N[C@H](C(=O)N1CCC[C@H]1c1cc2ccnc(-c3ccccc3)c2[nH]1)C1CCOCC1` [compound 1]: the IC50 in assay [1] was determined as 158 nM; in assay [3], 461 nM; in assay [4], 502 nM; in assay [2] it was 508 nM. Also, the Ki in assay [1] came to 36 nM; in assay [3], 71.3 nM; in assay [4] (Ki determined from IC50) it was 109 nM; in assay [2] it was 90.5 nM.
Take `CN[C@@H](C)C(=O)N[C@H](C(=O)N1CCC[C@H]1c1cc2nc(C)nc(-c3ccccc3)c2[nH]1)C1CCOCC1` [compound 6]: in assay [1], the IC50 was 359 nM and the inhibition constant (Ki) was 81.9 nM. For the same compound, in assay [2], the inhibitory constant (Ki) was 201 nM and the IC50 is 1130 nM.
